In ChEMBL document CHEMBL4004885, “Synthesis and biological activity of salinomycin-hydroxamic acid conjugates” (Bioorg Med Chem Lett, 2017):
Activity calls are given as the source filed them. No cut-off for these calls is given here.

How the values were obtained:
HT-29 [1] = experiment: Cytotoxicity against human HT-29 cells assessed as decrease in cell proliferation after 48 hrs by MTT assay; format: functional, cell-based; settings: HT-29, 48 h
MDA-MB-231 [2] = experiment: Cytotoxicity against human MDA-MB-231 cells assessed as decrease in cell proliferation after 48 hrs by MTT assay; format: functional, cell-based; settings: MDA-MB-231, 48 h
[3] = Chemical stability in RPMI1640 medium at 10 mg after 72 hrs by 1H NMR method; format: physicochemical
HGC-27 [4] = experiment: Cytotoxicity against human HGC27 cells assessed as decrease in cell proliferation after 48 hrs by MTT assay; format: functional, cell-based; settings: HGC-27, 48 h
MDA-MB-231 [5] = experiment: Cytotoxicity against human MDA-MB-231 cells assessed as decrease in cell proliferation after 48 hrs in presence of salinomycin by MTT assay; format: functional, cell-based; settings: MDA-MB-231, 48 h
MDA-MB-231 [6] = experiment: Cytotoxicity against human MDA-MB-231 cells assessed as decrease in cell proliferation at 10 uM after 48 hrs in presence of salinomycin by MTT assay; format: functional, cell-based
HT-29 [7] = experiment: Potency index, ratio of salinomycin IC50 to test compound IC50 for human HT-29 cells; format: functional
MDA-MB-231 [8] = experiment: Potency index, ratio of salinomycin IC50 to test compound IC50 for human MDA-MB-231 cells; format: functional
HGC-27 [9] = experiment: Potency index, ratio of salinomycin IC50 to test compound IC50 for human HGC27 cells; format: functional

Structure (SMILES) | Stability [3] | IC50 (HT-29 [1]) [nM] | IC50 (MDA-MB-231 [2]) [nM] | IC50 (HGC-27 [4]) [nM] | IC50 (MDA-MB-231 [5]) [nM] | Activity (MDA-MB-231 [6]) | Ratio IC50 (HT-29 [7]) | Ratio IC50 (MDA-MB-231 [8]) | Ratio IC50 (HGC-27 [9])
O=C(NO)c1ccccc1 [BENZOHYDROXAMATE] |  |  |  |  | 9850 | inactive |  |  | 
CC[C@@H](C(=O)[C@@H](C)[C@@H](O)[C@H](C)[C@@H]1O[C@@H]([C@@H](CC)C(=O)O)CC[C@@H]1C)[C@H]1O[C@]2(C=C[C@@H](O)[C@]3(CC[C@@](C)([C@H]4CC[C@](O)(CC)[C@H](C)O4)O3)O2)[C@H](C)C[C@@H]1C [SALINOMYCIN] | Stable | 1430 | 6530 to 6910 | 2570 |  |  |  |  | 
O=C(Cc1ccccc1)NO [PHENYLACETOHYDROXAMIC ACID] |  |  |  |  | 9720 | inactive |  |  | 
C/C=C/C=C/C(=O)NO |  |  |  |  | 7890 | inactive |  |  | 
CC[C@@H](C(=O)[C@@H](C)[C@@H](O)[C@H](C)[C@@H]1O[C@@H]([C@@H](CC)C(=O)ONC(=O)/C=C/c2ccccc2)CC[C@@H]1C)[C@H]1O[C@]2(C=C[C@@H](O)[C@]3(CC[C@@](C)([C@H]4CC[C@](O)(CC)[C@H](C)O4)O3)O2)[C@H](C)C[C@@H]1C | Stable | 7230 | 9640 | 7270 |  |  |  |  | 
O=C(NO)c1ccc(Br)cc1 |  |  |  |  | > 10000 | inactive |  |  | 
O=C(Cc1ccccc1Br)NO |  |  |  |  | > 10000 | inactive |  |  | 
CC(=O)O[C@H]1C(=O)[C@@]2(C)[C@H]([C@H](OC(=O)c3ccccc3)[C@]3(O)C[C@H](OC(=O)[C@H](O)[C@@H](NC(=O)c4ccccc4)c4ccccc4)C(C)=C1C3(C)C)[C@]1(OC(C)=O)CO[C@@H]1C[C@@H]2O [PACLITAXEL] |  |  | 80 |  |  |  |  |  | 
O=C(/C=C/c1ccccc1)NO |  |  |  |  | 8980 | inactive |  |  | 

Now from value to compound, other results behind:

Stability [3] | Structure (SMILES) | IC50 (HT-29 [1]) [nM] | IC50 (MDA-MB-231 [2]) [nM] | IC50 (HGC-27 [4]) [nM] | IC50 (MDA-MB-231 [5]) [nM] | Activity (MDA-MB-231 [6]) | Ratio IC50 (HT-29 [7]) | Ratio IC50 (MDA-MB-231 [8]) | Ratio IC50 (HGC-27 [9])
Stable | CC[C@@H](C(=O)[C@@H](C)[C@@H](O)[C@H](C)[C@@H]1O[C@@H]([C@@H](CC)C(=O)ONC(=O)c2ccccc2O)CC[C@@H]1C)[C@H]1O[C@]2(C=C[C@@H](O)[C@]3(CC[C@@](C)([C@H]4CC[C@](O)(CC)[C@H](C)O4)O3)O2)[C@H](C)C[C@@H]1C | 880 | 2780 | 920 |  |  |  |  | 
Stable | CC[C@@H](C(=O)[C@@H](C)[C@@H](O)[C@H](C)[C@@H]1O[C@@H]([C@@H](CC)C(=O)ONC(C)=O)CC[C@@H]1C)[C@H]1O[C@]2(C=C[C@@H](O)[C@]3(CC[C@@](C)([C@H]4CC[C@](O)(CC)[C@H](C)O4)O3)O2)[C@H](C)C[C@@H]1C | 2320 | 3790 | 2250 |  |  |  |  | 
Stable | CC[C@@H](C(=O)[C@@H](C)[C@@H](O)[C@H](C)[C@@H]1O[C@@H]([C@@H](CC)C(=O)ONC(=O)Cc2ccccc2)CC[C@@H]1C)[C@H]1O[C@]2(C=C[C@@H](O)[C@]3(CC[C@@](C)([C@H]4CC[C@](O)(CC)[C@H](C)O4)O3)O2)[C@H](C)C[C@@H]1C | 900 | 1010 | 1290 |  |  | 1.5 - 7 | 1.5 - 7 | 1.5 - 7
Stable | CC[C@@H](C(=O)[C@@H](C)[C@@H](O)[C@H](C)[C@@H]1O[C@@H]([C@@H](CC)C(=O)ONC(=O)c2ccccc2)CC[C@@H]1C)[C@H]1O[C@]2(C=C[C@@H](O)[C@]3(CC[C@@](C)([C@H]4CC[C@](O)(CC)[C@H](C)O4)O3)O2)[C@H](C)C[C@@H]1C | 850 | 2260 | 920 |  |  | 1.5 - 7 | 1.5 - 7 | 1.5 - 7
Stable | CC[C@@H](C(=O)[C@@H](C)[C@@H](O)[C@H](C)[C@@H]1O[C@@H]([C@@H](CC)C(=O)ONC(=O)CCc2ccccc2)CC[C@@H]1C)[C@H]1O[C@]2(C=C[C@@H](O)[C@]3(CC[C@@](C)([C@H]4CC[C@](O)(CC)[C@H](C)O4)O3)O2)[C@H](C)C[C@@H]1C | 800 | 1890 | 1050 |  |  | 1.5 - 7 | 1.5 - 7 | 1.5 - 7
Stable | CC[C@@H](C(=O)[C@@H](C)[C@@H](O)[C@H](C)[C@@H]1O[C@@H]([C@@H](CC)C(=O)ONC(=O)c2ccc(Br)cc2)CC[C@@H]1C)[C@H]1O[C@]2(C=C[C@@H](O)[C@]3(CC[C@@](C)([C@H]4CC[C@](O)(CC)[C@H](C)O4)O3)O2)[C@H](C)C[C@@H]1C | 700 | 940 | 510 |  |  |  | 7 | 7
Stable | CC[C@@H](C(=O)[C@@H](C)[C@@H](O)[C@H](C)[C@@H]1O[C@@H]([C@@H](CC)C(=O)ONC(=O)Cc2ccccc2Br)CC[C@@H]1C)[C@H]1O[C@]2(C=C[C@@H](O)[C@]3(CC[C@@](C)([C@H]4CC[C@](O)(CC)[C@H](C)O4)O3)O2)[C@H](C)C[C@@H]1C | 800 | 930 | 760 |  |  |  |  | 
Stable | CCCCCCCC(=O)NOC(=O)[C@H](CC)[C@H]1CC[C@H](C)[C@H]([C@@H](C)[C@H](O)[C@H](C)C(=O)[C@H](CC)[C@H]2O[C@]3(C=C[C@@H](O)[C@]4(CC[C@@](C)([C@H]5CC[C@](O)(CC)[C@H](C)O5)O4)O3)[C@H](C)C[C@@H]2C)O1 | 960 | 2690 | 1350 |  |  | 1.5 - 2.5 | 1.5 - 2.5 | 1.5 - 2.5
Stable | C/C=C/C=C/C(=O)NOC(=O)[C@H](CC)[C@H]1CC[C@H](C)[C@H]([C@@H](C)[C@H](O)[C@H](C)C(=O)[C@H](CC)[C@H]2O[C@]3(C=C[C@@H](O)[C@]4(CC[C@@](C)([C@H]5CC[C@](O)(CC)[C@H](C)O5)O4)O3)[C@H](C)C[C@@H]2C)O1 | 2310 | 3820 | 2630 |  |  |  |  | 
